The assay concerns the target T1, ferroportin (Homo sapiens, UniProt Q9NP59).
T1 sequence (Q9NP59 1-571): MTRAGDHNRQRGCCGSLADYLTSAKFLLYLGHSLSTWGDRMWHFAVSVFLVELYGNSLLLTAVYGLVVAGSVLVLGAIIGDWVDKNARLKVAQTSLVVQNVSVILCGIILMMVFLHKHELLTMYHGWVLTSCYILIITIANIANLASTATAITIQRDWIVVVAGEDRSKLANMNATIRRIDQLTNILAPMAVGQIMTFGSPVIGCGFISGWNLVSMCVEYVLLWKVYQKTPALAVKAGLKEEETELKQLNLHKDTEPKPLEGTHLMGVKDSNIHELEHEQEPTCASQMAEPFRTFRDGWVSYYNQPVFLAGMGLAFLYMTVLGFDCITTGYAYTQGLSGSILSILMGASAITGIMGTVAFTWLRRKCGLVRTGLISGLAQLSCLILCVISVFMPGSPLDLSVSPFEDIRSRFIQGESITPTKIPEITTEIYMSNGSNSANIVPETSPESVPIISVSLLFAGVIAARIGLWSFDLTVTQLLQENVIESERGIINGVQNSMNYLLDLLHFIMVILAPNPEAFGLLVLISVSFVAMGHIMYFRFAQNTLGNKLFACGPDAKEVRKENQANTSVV
Briefly: T47D cell-based ferroportin internalization assay in presence of mouse serum albumin (MSA). On the set-up: a human breast carcinoma adherent cell line which endogenously expresses ferroportin; host or cells: T47D. The note with it: Table 6E. The procedure:
The potency of the peptides in causing ferroportin internalization was evaluated in a T47D cell-based assay. […] In this internalization assay, the potency of the test peptides was evaluated in presence of serum albumin which is the main protein component in the blood. T47D cells were maintained in RPMI media (containing required amount of fetal bovine serum) and regularly sub-cultured. In preparation for the assay, the cells were seeded in 96-well plates at a density of 80-100 k cells per well in 100 ul volume and allowed to rest overnight. […] Sigma, A3139). The test peptide dilution series were allowed to incubate at room temperature for 30 min. Then the media was aspirated from the 96-well cell plate and test peptide dilution series were added. […] The AF647-conjugated detection peptide was previously verified to bind to ferroportin and cause its internalization. The cells were washed again after a 2 hr incubation in preparation for flow cytometry analysis. The Median Fluorescence Intensity (MFI) of the AF647-positive population was measured (after removing dead cells and non-singlets from the analysis). The MFI values were used to generate a dose-response curve and obtain IC50 potencies for the test peptides.

Setting [1] is: T47D internalization assay with MSA.
[2] abbreviates: T47D internalization assay in presence of mouse serum albumin (MSA).

Positions of bridges follow the written chain, without caps; N, C: chain ends. Non-standard residues stand in square brackets, D forms with d. Residues, ends and D or L forms follow the SMILES beside them. Groups on a side chain read outwards from the residue. *: point of attachment. X1 = C[N+](C)(CCNC(=O)CCCCCCCCCCCCCCCCC(=O)O)CC(=O)*; X5 = CCCCCCCCCCCCCCCC(=O)NCC[N+](C)(C)CC(=O)*; C18 diacid = O=C(O)CCCCCCCCCCCCCCCCC(=O)*; Dip = N[C@H](C(=O)O)C(c1ccccc1)c1ccccc1; Pro(3R-OH) = O=C(O)[C@H]1NCC[C@H]1O; Palmitoyl = CCCCCCCCCCCCCCCC(=O)*; NMeT = CN[C@H](C(=O)O)[C@@H](C)O; NMeE = CN[C@@H](CCC(=O)O)C(=O)O; β3hF = N[C@H](CC(=O)O)Cc1ccccc1; Aad = N[C@@H](CCCC(=O)O)C(=O)O; NMeK = CN[C@@H](CCCCN)C(=O)O; Tle = CC(C)(C)[C@H](N)C(=O)O; αMeP = C[C@@]1(C(=O)O)CCCN1; Isovaleryl = CC(C)CC(=O)*; Dap = NC[C@H](N)C(=O)O; AEEA = NCCOCCOCC(=O)O; Ahx = NCCCCCC(=O)O

As usually defined, the IC50 is the concentration that gives 50% inhibition. In the case of `COC(=O)CC[C@H](NC(=O)CC(C)C)C(=O)N1CCC[C@@]1(C)C(=O)N[C@@H](Cc1c[nH]cn1)C(=O)N[C@H](C(=O)N1CCC[C@H]1C(=O)N[C@H]1CSSC[C@@H](C(=O)N(C)[C@@H](CCCCNC(=O)CCCCCNC(=O)C[N+](C)(C)CCNC(=O)CCCCCCCCCCCCCCCCC(=O)O)C(=O)N[C@H](C(=O)N[C@H](CCCCN)C(N)=O)C(c2ccccc2)c2ccccc2)NC1=O)C(c1ccccc1)c1ccccc1` [compound 145] (Isovaleryl-E(OMe)[αMeP]H[Dip]PCC[NMeK]([Ahx-X1])[Dip][dK]-NH2; disulfide 6-7), under setting [1], the IC50 was 10 to 100 nM.

As for `CC(C)CC(=O)N[C@@H](CCC(=O)O)C(=O)N(C)[C@H](C(=O)N[C@@H](Cc1c[nH]cn1)C(=O)N[C@H](C(=O)N1CCC[C@H]1C(=O)N[C@H]1CSSC[C@@H](C(=O)N(C)[C@@H](CCCCNC(=O)CCCCCNC(=O)C[N+](C)(C)CCNC(=O)CCCCCCCCCCCCCCCCC(=O)O)C(=O)N[C@H](C(=O)N[C@H](CCCCN)C(N)=O)C(c2ccccc2)c2ccccc2)NC1=O)C(c1ccccc1)c1ccccc1)[C@@H](C)O` [compound 190] (Isovaleryl-E[NMeT]H[Dip]PCC[NMeK]([Ahx-X1])[Dip][dK]-NH2; disulfide 6-7), the IC50 under setting [1] is 100 to 500 nM.

On to `COC(=O)CC[C@H](NC(=O)CC(C)C)C(=O)N[C@H](C(=O)N[C@@H](Cc1c[nH]cn1)C(=O)N[C@H](C(=O)N1CCC[C@H]1C(=O)N[C@H]1CSSC[C@@H](C(=O)N[C@H](CCCCNC(=O)CCCCCNC(=O)C[N+](C)(C)CCNC(=O)CCCCCCCCCCCCCCCCC(=O)O)C(=O)N[C@H](C(=O)N[C@H](C(N)=O)C(C)(C)C)C(c2ccccc2)c2ccccc2)NC1=O)C(c1ccccc1)c1ccccc1)[C@@H](C)O` [compound 212] (Isovaleryl-E(OMe)TH[Dip]PCC[dK]([Ahx-X1])[Dip][Tle]-NH2; disulfide 6-7), for which, under setting [1], the concentration for half-maximal inhibition (IC50) fell in the range of 10 to 100 nM.

As for `COC(=O)CC[C@H](NC(=O)CC(C)C)C(=O)N1CC[C@@H](O)[C@H]1C(=O)N[C@@H](Cc1c[nH]cn1)C(=O)N[C@H](C(=O)N1CCC[C@H]1C(=O)N[C@H]1CSSC[C@@H](C(=O)N(C)[C@@H](CCCCNC(=O)CCCCCNC(=O)C[N+](C)(C)CCNC(=O)CCCCCCCCCCCCCCCCC(=O)O)C(=O)N[C@H](C(=O)N[C@H](CCCCN)C(N)=O)C(c2ccccc2)c2ccccc2)NC1=O)C(c1ccccc1)c1ccccc1` [compound 155] (Isovaleryl-E(OMe)[Pro(3R-OH)]H[Dip]PCC[NMeK]([Ahx-X1])[Dip][dK]-NH2; disulfide 6-7), the IC50 under setting [1] lay in the range of 10 to 100 nM.

Turning to `CC(C)CC(=O)N[C@@H](CN)C(=O)N[C@H](C(=O)N[C@@H](Cc1c[nH]cn1)C(=O)N[C@H](C(=O)N1CCC[C@H]1C(=O)N[C@H]1CSSC[C@@H](C(=O)N(C)[C@@H](CCCCNC(=O)COCCOCCNC(=O)COCCOCCNC(=O)[C@H](CN)NC(=O)CCCCCCCCCCCCCCCCC(=O)O)C(=O)N[C@H](CC(=O)N[C@H](CCCCN)C(N)=O)Cc2ccccc2)NC1=O)C(c1ccccc1)c1ccccc1)[C@@H](C)O` [compound 289] (Isovaleryl-[Dap]TH[Dip]PCC[NMeK]([AEEA-AEEA-Dap-C18 diacid])[β3hF][dK]-NH2; disulfide 6-7), the IC50 under setting [2] was 100 to 500 nM.

In the case of `CC(C)CC(=O)N[C@@H](CCC(=O)O)C(=O)N1CC[C@@H](O)[C@H]1C(=O)N[C@@H](Cc1c[nH]cn1)C(=O)N[C@H](C(=O)N1CCC[C@H]1C(=O)N[C@H]1CSSC[C@@H](C(=O)N(C)[C@@H](CCCCNC(=O)CCCCCNC(=O)C[N+](C)(C)CCNC(=O)CCCCCCCCCCCCCCCCC(=O)O)C(=O)N[C@H](C(N)=O)C(c2ccccc2)c2ccccc2)NC1=O)C(c1ccccc1)c1ccccc1` [compound 154] (Isovaleryl-E[Pro(3R-OH)]H[Dip]PCC[NMeK]([Ahx-X1])[Dip]-NH2; disulfide 6-7), the IC50 under setting [1] fell in the range of 10 to 100 nM.

Consider `CC(C)CC(=O)N[C@@H](CCC(=O)O)C(=O)N(C)[C@H](C(=O)N[C@@H](Cc1c[nH]cn1)C(=O)N[C@H](C(=O)N1CCC[C@H]1C(=O)N[C@H]1CSSC[C@@H](C(=O)N(C)[C@@H](CCCCNC(=O)CCCCCNC(=O)C[N+](C)(C)CCNC(=O)CCCCCCCCCCCCCCCCC(=O)O)C(=O)N[C@H](C(N)=O)C(c2ccccc2)c2ccccc2)NC1=O)C(c1ccccc1)c1ccccc1)[C@@H](C)O` [compound 189] (Isovaleryl-E[NMeT]H[Dip]PCC[NMeK]([Ahx-X1])[Dip]-NH2; disulfide 6-7), for which, under setting [1], the IC50 was 100 to 500 nM.

`CC(C)CC(=O)N[C@@H](CCC(=O)O)C(=O)N[C@H](C(=O)N[C@@H](Cc1cnc[nH]1)C(=O)N[C@H](C(=O)N1CCC[C@H]1C(=O)N[C@H]1CSSC[C@@H](C(=O)N(C)[C@@H](CCCCNC(=O)COCCOCCNC(=O)COCCOCCNC(=O)C[N+](C)(C)CCNC(=O)CCCCCCCCCCCCCCCCC(=O)O)C(=O)N[C@H](CC(=O)N[C@H](CCCCN)C(N)=O)Cc2ccccc2)NC1=O)C(c1ccccc1)c1ccccc1)[C@@H](C)O` [compound 159] (Isovaleryl-ETH[Dip]PCC[NMeK]([AEEA-AEEA-X1])[β3hF][dK]-NH2; disulfide 6-7): under setting [1], the IC50 was 10 to 100 nM.

Take `CCCCCCCCCCCCCCCC(=O)NCCCCCC(=O)NCCCC[C@@H](C(=O)N[C@H](C(=O)N[C@H](CCCCN)C(N)=O)C(c1ccccc1)c1ccccc1)N(C)C(=O)[C@@H]1CSSC[C@H](NC(=O)[C@@H]2CCCN2C(=O)[C@@H](NC(=O)[C@H](Cc2cnc[nH]2)NC(=O)[C@@H](NC(=O)[C@H](CCC(=O)O)N(C)C(=O)CC(C)C)[C@@H](C)O)C(c2ccccc2)c2ccccc2)C(=O)N1` [compound 166] (Isovaleryl-[NMeE]TH[Dip]PCC[NMeK]([Ahx-Palmitoyl])[Dip][dK]-NH2; disulfide 6-7): the half-maximal inhibitory concentration (IC50) under setting [1] fell in the range of 1 to 10 nM.

With `CCCCCCCCCCCCCCCC(=O)NCC[N+](C)(C)CC(=O)NCCCCCC(=O)NCCCC[C@@H](C(=O)N[C@H](C(=O)N[C@H](CCCCN)C(N)=O)C(c1ccccc1)c1ccccc1)N(C)C(=O)[C@@H]1CSSC[C@H](NC(=O)[C@@H]2CCCN2C(=O)[C@@H](NC(=O)[C@H](Cc2cnc[nH]2)NC(=O)[C@H]([C@@H](C)O)N(C)C(=O)[C@H](CCC(=O)O)NC(=O)CC(C)C)C(c2ccccc2)c2ccccc2)C(=O)N1` [compound 170] (Isovaleryl-E[NMeT]H[Dip]PCC[NMeK]([Ahx-X5])[Dip][dK]-NH2; disulfide 6-7), under setting [1], the IC50 was 1 to 10 nM.

With `CC(C)CC(=O)NC(CCC(=O)O)C(=O)NC(C(=O)NC(Cc1cnc[nH]1)C(=O)NC(C(=O)N1CCCC1C(=O)NC1CSCc2ccc(cc2)CSCC(C(=O)N(C)C(CCCCNC(=O)COCCOCCNC(=O)COCCOCCNC(=O)C(CN)NC(=O)CCCCCCCCCCCCCCCCC(=O)O)C(=O)NC(CC(=O)NC(CCCCN)C(N)=O)Cc2ccccc2)NC1=O)C(c1ccccc1)c1ccccc1)C(C)O` (centres unmarked) [compound 218], the IC50 under setting [1] was in the range of 10 to 100 nM.

Regarding `CCCCCCCCCCCCCCCC(=O)NCCCCCC(=O)NCCCC[C@@H](C(=O)N[C@H](C(=O)N[C@H](CCCCN)C(N)=O)C(c1ccccc1)c1ccccc1)N(C)C(=O)[C@@H]1CSSC[C@H](NC(=O)[C@@H]2CCCN2C(=O)[C@@H](NC(=O)[C@H](Cc2cnc[nH]2)NC(=O)[C@@H]2CCCN2C(=O)[C@H](CCC(=O)O)NC(=O)CC(C)C)C(c2ccccc2)c2ccccc2)C(=O)N1` [compound 171] (Isovaleryl-EPH[Dip]PCC[NMeK]([Ahx-Palmitoyl])[Dip][dK]-NH2; disulfide 6-7), the IC50 under setting [1] was in the range of 1 to 10 nM.

For `CCCCCCCCCCCCCCCC(=O)NCC[N+](C)(C)CC(=O)NCCCC[C@@H](C(=O)N[C@H](C(=O)N(C)[C@@H](CCCCN)C(N)=O)C(c1ccccc1)c1ccccc1)N(C)C(=O)[C@@H]1CSSC[C@H](NC(=O)[C@@H]2CCCN2C(=O)[C@@H](NC(=O)[C@H](Cc2c[nH]cn2)NC(=O)[C@H]([C@@H](C)O)N(C)C(=O)[C@H](CCC(=O)OC)NC(=O)CC(C)C)C(c2ccccc2)c2ccccc2)C(=O)N1` [compound 149] (Isovaleryl-E(OMe)[NMeT]H[Dip]PCC[NMeK](X5)[Dip][NMeK]-NH2; disulfide 6-7), the IC50 under setting [1] was in the range of 10 to 100 nM.

Consider `CC(C)CC(=O)N[C@@H](CCCC(=O)O)C(=O)N[C@H](C(=O)N[C@@H](Cc1c[nH]cn1)C(=O)N[C@H](C(=O)N1CCC[C@H]1C(=O)N[C@H]1CSSC[C@@H](C(=O)N(C)[C@@H](CCCCNC(=O)COCCOCCNC(=O)COCCOCCNC(=O)[C@H](CN)NC(=O)CCCCCCCCCCCCCCCCC(=O)O)C(=O)N[C@H](CC(=O)N[C@H](CCCCN)C(N)=O)Cc2ccccc2)NC1=O)C(c1ccccc1)c1ccccc1)[C@@H](C)O` [compound 244] (Isovaleryl-[Aad]TH[Dip]PCC[NMeK]([AEEA-AEEA-Dap-C18 diacid])[β3hF][dK]-NH2; disulfide 6-7), for which the IC50 under setting [2] is 10 to 100 nM.

The record behind these values is patent US20250277012A1 (Protagonist Therapeutics, Inc., priority 2021, published 2025).
